One test deals with COX-2. Description: COX-2 protein expression in LPS-stimulated RAW 264.7 macrophages (western blot). The class given is cell-based, murine. The settings on record: LPS 100 ng/ml, RAW 264.7, western blot. Here is the method:
RAW 264.7 cells were cultured in Rosewell Park Memorial Institute (RPMI) 1640 media (without phenol red) supplemented with 10% endotoxin-free, heat-inactivated fetal calf serum, 100 units/ml penicillin, and 100 μg/ml streptomycin. When the cells reached a density of 2-3×10^6 cells/ml, they were activated by incubation in a medium containing E. coli lipopolysaccharide (LPS) (100 ng/ml). Various concentrations of compounds of the disclosure in dimethyl sulphoxide (DMSO) were added together with LPS. Cells were treated with 0.05% DMSO as the vehicle control. The stimulated murine macrophage cell line RAW 264.7 cells were washed with PBS and lysed in an ice-cold RIPA buffer (Tris-HCl, pH 7.2, 25 mM; 0.1% SDS; 1% Triton X-100; 1% sodium deoxycholate; 0.15 M NaCl; 1 mM EDTA) containing 1 mM phenylmethyl sulphonyl fluoride (PMSF), 10 μg/mL aprotinin, 1 mM sodium ortho-vanadate, and 5 μg/mL leupeptin. Protein concentrations were determined using the BCA method (Pierce, Rockford, Ill.). The samples (50 μg of protein) were mixed with 5-fold of sample buffer containing 0.3 M Tris-HCl (pH 6.8), 25% 2-mercaptoethanol, 12% sodium dodecyl sulphate (SDS), 25 mM EDTA, 20% glycerol, and 0.1% bromophenol blue. The mixtures were boiled at 100° C. for 5 min, prerun on a stacking gel, and then resolved by 12% SDS-polyacrylamide minigels at a constant current of 20 mA. For western blot, proteins on the gel were electro-transferred onto a […] immobile polyvinylidene fluoride (PVDF) membrane with a transfer buffer composed of 25 mM Tris-HCl (pH 8.9), 192 mM glycine, and 20% methanol, as described by Pan et al. (2000). Membrane blocking was then carried out at room temperature for 1 h in blocking solution (20 mM Tris-HCl pH 7.4, 125 mM NaCl, 0.2% Tween 20, 1% bovine serum albumin, and 0.1% sodium azide). The membrane was incubated with the primary antibody of iNOS and COX-2 at 4° C. overnight. The membranes were subsequently probed with selected IgG antibody conjugated to horseradish peroxidase (Transduction Laboratories, Lexington, Ky.) and visualized using enhanced chemiluminescence (ECL, Amersham). The densities of the bands were quantitated using a densitometer (AlphaImager 2200 System). All the membranes were stripped and reprobed for β-actin (Sigma Chemical Co., St. Louis, Mo.) as loading control. […] The inhibition of iNOS induction by compounds of the disclosure may be due to down regulation of iNOS gene expression. EGCG and compounds of the disclosure with antioxidant activities may inhibit the ROS/RNS-mediated activation of NF-κB, the transcription factor that promotes gene expression of iNOS. […] The difference in their ability to inhibit production of iNOS and COX-2 may be due to other mechanisms involved in addition to blocking the NF-κB signalling pathway. EGCG and its derivatives may also suppress the cytokine production by breaking down the mRNA and protein of iNOS and COX-2 to varied degrees. (7b) Inhibition Against LPS-Induced NO Production in RAW 264.7 Macrophage The LPS-induced NO production by the macrophages was determined as nitrite concentration in the culture medium according to the Griess reaction. The culture medium of the control and treated cells was collected and centrifuged. An aliquot (100 μL) of the supernatant was mixed with an equal volume of Griess reagent. The absorbance of the mixture at 550 nm was measured with an ELISA plate reader (Dynatech MR-7000; Dynatech Laboratories, Chantilly, Va., USA). […]

Test [1] can be described thus: Oil/water emulsion (β-carotene/linoleate) bleaching. The settings on record: test compounds 1 mM in ethanol, 50° C., 105 min. Here is the method:
Ten milligrams of β-carotene were dissolved in 10 ml of chloroform. A 1.2 ml portion of this solution was transferred into a round-bottom flask containing 40 mg of linoleic acid and 400 mg of Tween 40. A blank without β-carotene was also prepared (40 mg of linoleic acid+400 mg of Tween 40). After removal of chloroform under a nitrogen stream, 100 ml of oxygenated distilled water were added to the flask and the mixture was stirred vigorously. Aliquots (4.5 ml) of the above emulsion were transferred into a series of tubes containing 0.5 ml of test compounds (1 mM in ethanol) or ethanol as control. A mixture of blank (without β-carotene) was prepared for each sample. The tubes were vortexed and the zero time absorbance was read immediately at 470 nm. The tubes are kept in a water bath at 50° C. with gentle shaking, and measurement of absorbance was continued over a 105-min period at intervals of 15 min. Blank-corrected absorbance was obtained and plotted against time for kinetic curve of β-carotene bleaching. Antioxidant activity (AA) of test compounds in protecting β-carotene/linoleic acid oxidation was calculated using the following equation. AA %=[1−(A0−At)/(A0^o−At^o)]×100 where, A0 and At are corrected absorbance values for test samples measured at zero time and after incubation, respectively; while A0^o and At^o are corrected absorbance values for control at zero time and after incubation, respectively.

The nature of test [2]: TBARS formation in cooked pork model system. Particulars: 80 μmol/kg meat, stored at 4° C. On the procedure: Fresh ground pork (40 g) was mixed with deionized water (10 g) in a Mason jar. Samples and reference antioxidant compound (BHA) dissolved in ethanol were added to meat at a level of 80 μmol/kg. A control without any antioxidant was also prepared. The content was thoroughly mixed and cooked at 80° C. in a thermostated water bath for 40 min with intermittent stirring. The cooked meat was cooled to room temperature and homogenized with a Polytron PT 3000 (Brinkmann Instruments, Rexdale, ON) homogenizer. The homogenate was then transferred into plastic bags and stored at 4° C. for 14 days. […].
TBARS values were determined as described by Shahidi and Hong (Shahidi, F. and Hong, C. Evaluation of malonaldehyde as a marker of oxidative rancidity in meat products. J. Food Biochem. 15, 97-105, 1991).
A series of TMP (1,1,3,3-tetramethoxypropane) standard solutions at difference concentrations was mixed with thiobarbituric acid (TBA) in screw-capped tubes and heated in a boiling water bath for 45 min. After cooling on ice, the absorbance was recorded at 532 nm and a standard curve was constructed (absorbance versus concentration). For TBARS in the cooked meat model system, 2 g of meat were mixed with 5 ml of trichloroacetic acid (TCA, 10% w/v) in a centrifuge tube, followed by addition of 5 ml of TBA reagent. The mixture was centrifuged at 3000×g for 10 min and the supernatant was filtered. The filtrate was heated in a boiling water bath for 45 min and absorbance was measured at 532 nm after cooling to room temperature. TBARS values in meat samples were obtained using the standard curve as μmol malonaldehyde equivalents/kg of meat. Antioxidant activity was calculated as percentage inhibition of TBARS formation by test compounds.

Data on 4 compounds can be found in US9018248B2, “Fatty acid derivatives of catechins and methods of their use” (Genesis Group Inc., priority 2010, dated 2015).

Marks after values point to notes of the source that are not given here.

As to `CCCCCCCCCCCCCCCCCC(=O)Oc1cc(C(=O)OC2Cc3c(O)cc(O)cc3OC2c2cc(OC(=O)CCCCCCCCCCCCCCCCC)c(O)c(OC(=O)CCCCCCCCCCCCCCCCC)c2)cc(OC(=O)CCCCCCCCCCCCCCCCC)c1O` (stereo not drawn) [Compound 1a, EGCG stearate], the “Inhibition of COX-2 protein expression” value with COX-2 is reported as “decreased in the order of 1a>1b>EGCG>1c”. In addition, the “Inhibition of β-carotene bleaching” value in test [1] is listed as 16.8 ± 4.19^b %. The “Inhibition of TBARS formation in cooked pork” value (from here on “Inhibition of TBARS formation”) in test [2] is 86.3 ± 2.10^a %.

Turning to `CCC=CCC=CCC=CCC=CCC=CCCCC(=O)Oc1cc(C(=O)OC2Cc3c(O)cc(O)cc3OC2c2cc(OC(=O)CCCC=CCC=CCC=CCC=CCC=CCC)c(O)c(OC(=O)CCCC=CCC=CCC=CCC=CCC=CCC)c2)cc(OC(=O)CCCC=CCC=CCC=CCC=CCC=CCC)c1O` (stereo not drawn) [Compound 1b], in the test with COX-2, the “Inhibition of COX-2 protein expression” value is on record as “decreased in the order of 1a>1b>EGCG>1c”. Besides, the “Inhibition of β-carotene bleaching” value in test [1] is 28.0 ± 0.17^a %. Further, the “Inhibition of TBARS formation” value in test [2] is recorded as 80.5 ± 0.80^bc %.

For the compound `CCC=CCC=CCC=CCC=CCC=CCC=CCCC(=O)Oc1cc(C(=O)OC2Cc3c(O)cc(O)cc3OC2c2cc(OC(=O)CCC=CCC=CCC=CCC=CCC=CCC=CCC)c(O)c(OC(=O)CCC=CCC=CCC=CCC=CCC=CCC=CCC)c2)cc(OC(=O)CCC=CCC=CCC=CCC=CCC=CCC=CCC)c1O` (stereo not drawn) [Compound 1c], the “Inhibition of COX-2 protein expression” value in the test on COX-2 is “decreased in the order of 1a>1b>EGCG>1c”. Besides, the “Inhibition of β-carotene bleaching” value in test [1] was 32.1 ± 4.48^a %. For the same compound, in test [2], the “Inhibition of TBARS formation” value was 78.4 ± 1.62^c %.

As for `O=C(O[C@@H]1Cc2c(O)cc(O)cc2O[C@@H]1c1cc(O)c(O)c(O)c1)c1cc(O)c(O)c(O)c1` [EGCG, Epigallocatechin gallate, reference compound], the “Inhibition of COX-2 protein expression” value in the test with COX-2 was “decreased in the order of 1a>1b>EGCG>1c”. Besides, the “Inhibition of β-carotene bleaching” value in test [1] is given as 7.90 ± 0.64^c %. For the same compound, the “Inhibition of TBARS formation” value in test [2] is recorded as 71.9 ± 1.56^d %.
